Numbering of substitutions follows the chain as printed. “And” between values parts separate entries of the source, which are not always exact repeats. Equal values may be shown once. Read-outs that look alike come from different tables or passages of the source.
Assays:
PfCRT^Dd2 [1] = target: T1, PfCRT^Dd2 (Plasmodium falciparum, UniProt Q8IBZ9, A220S/I356T/K76T/M74I/N326S/N75E/Q271E/R371I); experiment: Competition plot (Vtotal versus proportion of PPQ in CQ/PPQ mixtures), PfCRT^Dd2; format: cell-based; parameters: expressed in transfected cells; host or cells: Xenopus laevis oocytes injected with in vitro transcribed RNA (pSP64T); details: for competition plot result (binding sites): CQ/PPQ mixtures, curve with a maximum
T1 sequence (Q8IBZ9 1-424 M74I/N75E/K76T/A220S/Q271E/N326S/I356T/R371I): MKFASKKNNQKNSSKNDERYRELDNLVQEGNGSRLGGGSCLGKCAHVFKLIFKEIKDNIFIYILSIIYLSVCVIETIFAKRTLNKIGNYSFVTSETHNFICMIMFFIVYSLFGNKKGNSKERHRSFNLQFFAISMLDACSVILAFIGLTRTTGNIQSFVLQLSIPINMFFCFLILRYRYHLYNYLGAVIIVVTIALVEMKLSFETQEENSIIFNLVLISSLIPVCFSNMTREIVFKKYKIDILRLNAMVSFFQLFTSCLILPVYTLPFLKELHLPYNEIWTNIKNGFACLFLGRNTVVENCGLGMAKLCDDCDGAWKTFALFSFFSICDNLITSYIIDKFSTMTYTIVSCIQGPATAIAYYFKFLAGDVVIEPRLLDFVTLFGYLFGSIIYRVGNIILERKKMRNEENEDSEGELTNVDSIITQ
Description: To test this hypothesis, we performed competition plot experiments, in which the enzyme or carrier is exposed to substrate mixtures that give the same transport rate for different substrates. The experiment is performed with substrate A labeled and then repeated with substrate B labeled.
The competition plot tests whether two substrates bind to the same site or distinct sites on an enzyme or transporter. A competitive reaction would yield data points that lie on a horizontal line, whereas allosteric interactions would reveal a curved relationship. […] Vtotal was subsequently analyzed as a function of the proportion of PPQ in the mixture (P). For more details see Materials and Methods. The mean ± SEM of at least 3 independent biological replicates are shown.
The competition plot was performed as described elsewhere. […] These corresponded to values of P equal to 0, 0.25, 0.5, 0.75, 0.9 and 1. A plot of Vtotal as a function of P yielded the competition plots. If both substrates bind to the same site, then a constant Vtotal is expected across all P values (e.g. data lies on a horizontal line). If the substrates bind to different sites, and they inhibit each other’s transport, it is expected that the curve is concave with either a minimum or a maximum.

PfCRT^Dd2 [2] = target: T1, PfCRT^Dd2; details: read-out: apparent Km for CQ on PfCRT^Dd2, cited from earlier work
PfCRT^Dd2_S257A = target: T2, PfCRT^Dd2_S257A (Plasmodium falciparum, UniProt Q8IBZ9, A220S/I356T/K76T/M74I/N326S/N75E/Q271E/R371I/S257A); experiment: PfCRT-mediated CQ transport in oocytes expressing PfCRT^Dd2_S257A; format: cell-based; details: S6 Fig; per biological replicate
T2 construct: expressed in transfected cells; host or cells: Xenopus laevis oocytes
T2 sequence (Q8IBZ9 1-424 M74I/N75E/K76T/A220S/S257A/Q271E/N326S/I356T/R371I): T1 sequence (Q8IBZ9 1-424 M74I/N75E/K76T/A220S/Q271E/N326S/I356T/R371I) with S257A
Excerpt: The docking results reflect the differences in the experimentally measured affinities of the two compounds for PfCRT^Dd2, with CQ having less favorable docking scores compared to PPQ (S1 Table). […] In this pose, CQ forms polar contacts via the two positively charged nitrogens: the nitrogen of the diethylamino tail makes a salt bridge with E75 on TM1 and the nitrogen of the 4-amminoquinoline ring makes a hydrogen bond with S257 on TM7. Hydrophobic contacts are established by the quinoline ring with I260, V141, and F145.
Drug transport assays were performed as previously described. Briefly, measurements of radiolabeled drug uptake were made over 1 h, unless otherwise specified. […] Where specified, one or more unlabeled drugs were also present at the indicated concentrations. […] The radioactivity in the sample was measured using a liquid scintillation analyser Tri-Carb 4910 TR (PerkinElmer). Water-injected oocytes were analyzed in parallel as a negative control. The buffer from each condition was measured in duplicate in parallel to each experiment to transform counts per minute into pmol of drug. Drug uptake attributable to PfCRT was determined by subtracting the background uptake from water-injected oocytes from that of PfCRT-expressing oocytes. […]

Dd2^3D7crt parasites = tested on: Dd2^3D7crt parasites; parameters: method as in Okombo et al. (2022); details: ref Okombo et al. (2022); cited from earlier work
Dd2^Dd2crt parasites = tested on: Dd2^Dd2crt parasites; parameters: method as in Okombo et al. (2022); details: ref Okombo et al. (2022); cited from earlier work
[3] = CQ/PPQ mixture, P = 0.25, single replicates
[4] = CQ/PPQ mixture, P = 0.5, single replicates
[5] = CQ/PPQ mixture, P = 0.75, single replicates
[6] = CQ/PPQ mixture, P = 0.9, single replicates

| SMILES | PfCRTDd2-mediated CQ transport P = 0 (PfCRT^Dd2 [1]; CQ/PPQ mixture, P = 0, single replicates) | PfCRTDd2-mediated CQ transport P = 0.25 (PfCRT^Dd2 [1]; [3]) | PfCRTDd2-mediated CQ transport P = 0.5 (PfCRT^Dd2 [1]; [4]) | PfCRTDd2-mediated CQ transport P = 0.75 (PfCRT^Dd2 [1]; [5]) | PfCRTDd2-mediated CQ transport P = 0.9 (PfCRT^Dd2 [1]; [6]) | competition plot result (binding sites) (PfCRT^Dd2 [1]) | Km (PfCRT^Dd2 [2]; ref Bellanca et al., 2014) | Km (PfCRT^Dd2 [2]; ref Martin et al. 2009) | PfCRTDd2_S257A-mediated CQ transport (PfCRT^Dd2_S257A) | drug accumulation ratio (Dd2^3D7crt parasites) | PfCRTDd2-mediated PPQ transport P = 0.25 (PfCRT^Dd2 [1]; [3]) | PfCRTDd2-mediated PPQ transport P = 0.5 (PfCRT^Dd2 [1]; [4]) | PfCRTDd2-mediated PPQ transport P = 0.75 (PfCRT^Dd2 [1]; [5]) | PfCRTDd2-mediated PPQ transport P = 0.9 (PfCRT^Dd2 [1]; [6]) | PfCRTDd2-mediated PPQ transport P = 1 (PfCRT^Dd2 [1]; CQ/PPQ mixture, P = 1, single replicates) | drug accumulation ratio (Dd2^Dd2crt parasites) |
| --- | --- | --- | --- | --- | --- | --- | --- | --- | --- | --- | --- | --- | --- | --- | --- | --- |
| CCN(CC)CCCC(C)Nc1ccnc2cc(Cl)ccc12 (centres unmarked) [CQ, chloroquine] | 20.79 pmol oocyte-1 h-1 and 22.58 pmol oocyte-1 h-1 and 19.58 pmol oocyte-1 h-1 and 16.43 pmol oocyte-1 h-1 | 18.03 pmol oocyte-1 h-1 and 18.73 pmol oocyte-1 h-1 and 18.01 pmol oocyte-1 h-1 | 16.36 pmol oocyte-1 h-1 and 12.29 pmol oocyte-1 h-1 | 7.91 pmol oocyte-1 h-1 and 7.73 pmol oocyte-1 h-1 and 11.16 pmol oocyte-1 h-1 and 8.67 pmol oocyte-1 h-1 | 4.33 pmol oocyte-1 h-1 and 3.12 pmol oocyte-1 h-1 and 4.83 pmol oocyte-1 h-1 | bind at different sites | 250 ± 30 µM | 245 ± 3 µM | 1.610 pmol oocyte-1 h-1 and 1.360 pmol oocyte-1 h-1 and 1.980 pmol oocyte-1 h-1 | – | – | – | – | – | – | – |
| Clc1ccc2c(N3CCN(CCCN4CCN(c5ccnc6cc(Cl)ccc56)CC4)CC3)ccnc2c1 [PPQ, piperaquine] | – | – | – | – | – | bind at different sites | – | – | – | 2000 fold | 3.23 pmol oocyte-1 h-1 and 2.01 pmol oocyte-1 h-1 and 4.17 pmol oocyte-1 h-1 | 8.67 pmol oocyte-1 h-1 and 8.62 pmol oocyte-1 h-1 and 9.88 pmol oocyte-1 h-1 | 14.14 pmol oocyte-1 h-1 and 12.26 pmol oocyte-1 h-1 and 14.54 pmol oocyte-1 h-1 | 15.27 pmol oocyte-1 h-1 and 15.64 pmol oocyte-1 h-1 and 17.36 pmol oocyte-1 h-1 and 20.19 pmol oocyte-1 h-1 | 17.53 pmol oocyte-1 h-1 and 18.98 pmol oocyte-1 h-1 and 22.10 pmol oocyte-1 h-1 | 1900 fold |

From article PMC10281575, “PfCRT mutations conferring piperaquine resistance in falciparum malaria shape the kinetics of quinoline drug binding and transport” (PLOS Pathogens, 2023)
